In patent US12558428B2, “Heterobifunctional compounds and their use in treating disease” (Halda Therapeutics OpCo, Inc., priority 2024, dated 2026):
Like-named read-outs stand apart in the source and are kept apart here.

Columns and labels:
Format in all cases: cell-based
[1] = tested on: T-Rex 293 cells lacking increased expression of estrogen receptor alpha protein; assay: Cellular growth inhibition assay, T-Rex 293 cells, (−) doxycycline; details: T-REx-293, 72 h, 72 hours
Outline: (§1)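 Growth of a doxycycline-inducible ERα T-Rex 293 clone, induced or not with 3 ng/mL doxycycline, was followed for 72 h with test compound in hormone-depleted medium. CellTiter-Glo luminescence gave GI50.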

[2] = tested on: T-Rex 293 cells having increased expression of estrogen receptor alpha protein; assay: Cellular growth inhibition assay, T-Rex 293 cells, (+) doxycycline; details: T-REx-293, 72 h, 72 hours
Outline: as §1

[3] = tested on: MCF7 cells (ATCC #HTB-22); assay: Cellular growth inhibition assay, MCF7 cells purchased from ATCC; details: Homo sapiens, MCF7, 144 h, Table 8-A; MCF7 cells purchased from ATCC; six days; CellTiter-Glo; read-out: GI50
Outline: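 GI50 values come from a four-parameter fit of CellTiter-Glo 2.0 luminescence after six days of compound exposure at 37° C. Seeding density depended on the source: 225 cells/well for ECACC MCF7, 1,500 for ATCC. Medium was RPMI 1640 with 10% FBS and 0.2 U/ml insulin.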

[4] = Table 7-A, T-Rex 293 cells without doxycycline (lacking increased ERα expression), CellTiter-Glo, read-out: (−) Dox GI50
[5] = Table 7-A, T-Rex 293 cells with doxycycline (increased ERα expression), CellTiter-Glo, read-out: (+) Dox GI50
[6] = T-Rex 293 cells without doxycycline, CellTiter-Glo 2.0, read-out: (−) Dox TRex ERa (GI50)
[7] = T-Rex 293 cells with doxycycline-induced ERα expression, CellTiter-Glo 2.0, read-out: (+) Dox TRex ERa (GI50)

GI50 [3] [µM]	Compound	GI50 [1, 4] [µM]	GI50 [2, 5] [µM]	GI50 [1, 6] [µM]	GI50 [2, 7] [µM]
0.05 to 0.5	Cc1sc2c(c1C)C(c1ccc(N3CCC(O)(CN4CCC(c5cc(F)c([C@H]6c7ccc(O)cc7CC[C@H]6c6ccc(F)cc6)c(F)c5)CC4)CC3)cc1)=N[C@@H](C)c1nnc(C)n1-2 (single isomer, unassigned) [III-244]	> 2.5	> 2.5	–	–
0.05 to 0.5	CC1=C(c2c(F)cc(OCCOCCOc3ccc(C4=N[C@@H](C)c5nnc(C)n5-c5sc(C)c(C)c54)cc3)cc2F)C(c2ccccc2)Oc2ccc(O)cc21 (single isomer, unassigned) [I-39]	–	–	0.5 to 2.5	0.05 to 0.5
0.05 to 0.5	CC1=C(c2c(F)cc(F)cc2F)[C@H](c2ccc(N3CCN(CC4CCN(c5ccc(C6=N[C@@H](C)c7nnc(C)n7-c7sc(C)c(C)c76)cc5)CC4)CC3)cc2)Oc2ccc(O)cc21 [V-23]	0.5 to 2.5	< 0.05	–	–
0.05 to 0.5	Cc1sc2c(c1C)C(c1ccc(N3CCC(O)(CN4CCN(c5cc(F)c([C@H]6c7ccc(O)cc7CC[C@H]6c6ccc(F)cc6)c(F)c5)CC4)CC3)cc1)=N[C@@H](C)c1nnc(C)n1-2 [III-237]	0.5 to 2.5	0.05 to 0.5	–	–
< 0.05	Cc1sc2c(c1C)C(c1ccc(OCCOCCOCCCN3CC(Nc4ccc([C@@H]5c6ccc7n[nH]cc7c6C[C@@H](C)N5CC(F)(F)F)nc4)C3)cc1)=N[C@@H](C)c1nnc(C)n1-2 [I-33, 6-((6S,8R)-8-methyl-7-(2,2,2-trifluoroethyl)-6,7,8,9-tetrahydro-2H-pyrazolo[4,3-f]isoquinolin-6-yl)-N-(1-(3-(2-(2-(4-((S)-2,3,6,9-tetramethyl-6H-thieno[3,2-f][1,2,4]triazolo[4,3-a][1,4]diazepin-4-yl)phenoxy)ethoxy)ethoxy)propyl)azetidin-3-yl)pyridin-3-amine]	–	–	> 2.5	< 0.05
< 0.05	Cc1sc2c(c1C)C(c1ccc(OCCOCCOCCOc3cc(F)c([C@@H]4c5[nH]c6ccccc6c5C[C@@H](C)N4CC(C)(C)F)c(F)c3)cc1)=N[C@@H](C)c1nnc(C)n1-2 [I-25, (S)-4-(4-(2-(2-(2-(3,5-difluoro-4-((1R,3R)-2-(2-fluoro-2-methylpropyl)-3-methyl-2,3,4,9-tetrahydro-1H-pyrido[3,4-b]indol-1-yl)phenoxy)ethoxy)ethoxy)ethoxy)phenyl)-2,3,6,9-tetramethyl-6H-thieno[3,2-f][1,2,4]triazolo[4,3-a][1,4]diazepine]	–	–	0.05 to 0.5	0.05 to 0.5
0.05 to 0.5	Cc1sc2c(c1C)C(c1ccc(N3CCC(O)(CN4CCN(c5ccc([C@H]6c7ccc(O)cc7CC[C@H]6c6ccc(F)c(F)c6)c(F)c5)CC4)CC3)cc1)=N[C@@H](C)c1nnc(C)n1-2 [III-269]	0.05 to 0.5	0.05 to 0.5	–	–
< 0.05	Cc1sc2c(c1C)C(c1ccc(N3CCC(O)(CN4CCN(c5ccc([C@@H]6c7ccc(O)cc7CC[C@@H]6c6ccccc6F)c(F)c5)CC4)CC3)cc1)=N[C@@H](C)c1nnc(C)n1-2 [III-291]	0.5 to 2.5	< 0.05	–	–
0.05 to 0.5	Cc1sc2c(c1C)C(c1ccc(N3CCC(O)(CN4CCN(c5cc(F)c([C@H]6c7ccc(O)cc7CC[C@H]6c6ccc(F)cc6)cc5F)CC4)CC3)cc1)=N[C@@H](C)c1nnc(C)n1-2 [III-257]	0.5 to 2.5	0.05 to 0.5	–	–
0.5 to 2.5	CC1=C(c2c(F)cc(F)cc2F)[C@@H](c2ccc(OCCN3CCC[C@@]4(CCN(c5ccc(C6=N[C@@H](C)c7nnc(C)n7-c7sc(C)c(C)c76)cc5)C4)C3)cc2)Oc2ccc(O)cc21 [V-10]	0.5 to 2.5	0.5 to 2.5	–	–

The remaining lines, values behind:

Compound	GI50 [3] [µM]	GI50 [1, 4] [µM]	GI50 [2, 5] [µM]	GI50 [1, 6] [µM]	GI50 [2, 7] [µM]
Cc1sc2c(c1C)C(c1ccc(N3CC(CN4CCN(CC5CN(c6ccc([C@@H]7c8ccc(O)cc8CC[C@@H]7c7ccccc7)cc6)C5)CC4)C3)cc1)=N[C@@H](Cc1ncco1)c1nnc(C)n1-2 [III-162]	< 0.05	0.05 to 0.5	< 0.05	–	–
Cc1sc2c(c1C)C(c1ccc(N3CCC(C(=O)N4CCN(c5ccc([C@@H]6c7ccc(O)cc7CC[C@@H]6c6ccccc6)cc5)CC4)CC3)cc1)=N[C@@H](Cc1ncco1)c1nnc(C)n1-2 [III-149]	< 0.05	0.05 to 0.5	< 0.05	–	–
Cc1sc2c(c1C)C(c1ccc(N3CCN(CC4CCN(c5ccc([C@H]6c7ccc(O)cc7CC[C@H]6c6ccccc6)cc5)CC4)CC3)cc1)=N[C@@H](C)c1nnc(C)n1-2 (single isomer, unassigned) [I-37a]	0.05 to 0.5	0.5 to 2.5	0.05 to 0.5	–	–
Cc1sc2c(c1C)C(c1ccc(N3CCC(O)(CN4CCN(c5ccc(C6=C(c7ccccc7)CCCc7cc(O)ccc76)cc5)CC4)CC3)cc1)=N[C@@H](C)c1nnc(C)n1-2 [IV-17]	< 0.05	0.5 to 2.5	< 0.05	–	–
Cc1sc2c(c1C)C(c1ccc(N3CCC(O)(CN4CCN(c5ccc([C@@H]6c7ccc(O)cc7CC[C@@H]6c6ccc(F)cc6F)cc5)CC4)CC3)cc1)=N[C@H](Cc1ncco1)c1nnc(C)n1-2 [III-193]	0.05 to 0.5	0.5 to 2.5	0.05 to 0.5	–	–
Cc1sc2c(c1C)C(c1ccc(N3CCC(F)(CN4CCC(c5ccc(C6=C(c7ccc(Cl)cc7Cl)CCCc7cc(C(=O)O)ccc76)cc5)CC4)CC3)cc1)=N[C@@H](C)c1nnc(C)n1-2 [IV-21]	0.05 to 0.5	0.5 to 2.5	< 0.05	–	–
Cc1sc2c(c1C)C(c1ccc(N3CCC(O)(CN4CCN(c5ccc(C6=C(c7ccc(Cl)cc7Cl)CCCc7cc(C(=O)O)ccc76)cc5)CC4)CC3)cc1)=N[C@@H](Cc1ncco1)c1nnc(C)n1-2 [IV-31]	< 0.05	0.05 to 0.5	< 0.05	–	–
Cc1sc2c(c1C)C(c1ccc(N3CC(CN4CCC(C(=O)N5CC(c6ccc([C@@H]7c8ccc(O)cc8CC[C@@H]7c7ccccc7)cc6)C5)CC4)C3)cc1)=N[C@@H](C)c1nnc(C)n1-2 [III-173]	< 0.05	0.05 to 0.5	< 0.05	–	–
Cc1sc2c(c1C)C(c1ccc(N3CC(O)(CN4CCN(CC5CN(c6ccc([C@@H]7c8ccc(O)cc8CC[C@@H]7c7ccccc7)cc6)C5)CC4)C3)cc1)=N[C@@H](Cc1ncco1)c1nnc(C)n1-2 [III-181]	< 0.05	0.05 to 0.5	< 0.05	–	–
Cc1sc2c(c1C)C(c1ccc(N3CC(CC4CCN(CC5(F)CN(c6ccc([C@@H]7c8ccc(O)cc8CC[C@@H]7c7ccccc7)cc6)C5)CC4)C3)cc1)=N[C@@H](C)c1nnc(C)n1-2 [III-151]	< 0.05	> 2.5	< 0.05	–	–
CC1=C(c2c(F)cc(F)cc2F)[C@@H](c2ccc(N3CC(CN4CCN(CC5CN(c6ccc(C7=N[C@@H](C)c8nnc(C)n8-c8sc(C)c(C)c87)cc6)C5)CC4)C3)cc2)Oc2ccc(O)cc21 [V-36]	0.05 to 0.5	0.5 to 2.5	< 0.05	–	–
Cc1sc2c(c1C)C(c1ccc(N3CCC(CN4CCN(c5ccc([C@@H]6c7ccc(O)cc7CC[C@@H]6c6ccccc6)cc5)CC4)CC3)cc1)=N[C@H](Cc1ncco1)c1nnc(C)n1-2 [III-74]	0.05 to 0.5	0.05 to 0.5	< 0.05	–	–
Cc1sc2c(c1C)C(c1ccc(N3CC4(CCC(CN5CCN(c6ccc([C@@H]7c8ccc(O)cc8CC[C@@H]7c7ccccc7)cc6)CC5)CC4)C3)cc1)=N[C@@H](C)c1nnc(C)n1-2 [III-230]	0.05 to 0.5	> 2.5	< 0.05	–	–
Cc1sc2c(c1C)C(c1ccc(CN3CC4(CCN(c5ccc([C@@H]6c7ccc(O)cc7CC[C@@H]6c6ccccc6)cc5)CC4)C3)cc1)=N[C@@H](C)c1nnc(C)n1-2 [III-107]	0.05 to 0.5	0.5 to 2.5	0.05 to 0.5	–	–
Cc1sc2c(c1C)C(c1ccc(C3CN(C(=O)C4CCN(CC5CN(c6ccc([C@@H]7c8ccc(O)cc8CC[C@@H]7c7ccccc7)cc6)C5)CC4)C3)cc1)=N[C@@H](C)c1nnc(C)n1-2 [III-172]	0.05 to 0.5	0.05 to 0.5	< 0.05	–	–
Cc1sc2c(c1C)C(c1ccc(N3CCC(CN4CCN(c5ccc([C@@H]6c7ccc(O)cc7CC[C@@H]6c6ccccc6)cc5)CC4)CC3)cc1)=N[C@@H](C)c1nnc(C)n1-2 [III-5]	< 0.05	0.5 to 2.5	< 0.05	–	–
Cc1sc2c(c1C)C(c1ccc(N3CC(CN4CCN(CC5CN(c6ccc(C7=C(c8ccc(F)cc8)CCCc8cc(C(=O)O)ccc87)cc6)C5)CC4)C3)cc1)=N[C@@H](C)c1nnc(C)n1-2 [IV-38]	< 0.05	0.5 to 2.5	< 0.05	–	–
Cc1sc2c(c1C)C(c1ccc(N3CCC4(CC3)CCN(c3ccc([C@@H]5c6ccc(O)cc6CC[C@@H]5c5ccccc5)cc3)CC4)cc1)=N[C@@H](C)c1nnc(C)n1-2 [III-116]	0.5 to 2.5	> 2.5	> 2.5	–	–
Cc1sc2c(c1C)C(c1ccc(OCCCCC3CCN(c4ccc(C(=O)c5c(-c6ccc(O)cc6)sc6cc(O)ccc56)cc4)CC3)cc1)=N[C@@H](Cc1ncco1)c1nnc(C)n1-2 [I-21, (S)-(6-hydroxy-2-(4-hydroxyphenyl)benzo[b]thiophen-3-yl)(4-(4-(4-(4-(2,3,9-trimethyl-6-(oxazol-2-ylmethyl)-6H-thieno[3,2-f][1,2,4]triazolo[4,3-a][1,4]diazepin-4-yl)phenoxy)butyl)piperidin-1-yl)phenyl)methanone]	< 0.05	–	–	0.05 to 0.5	< 0.05
